ChEMBL document CHEMBL1123552 (J Med Chem, 1987)
Values after ≈ are worked out from the molar mass of the structure shown. Values joined by “and” are separate entries in the source; they are usually repeats but may differ in a detail not shown here. Equal values may be shown once.

How the values were obtained:
Mus musculus [1] = experiment: Antimalarial activity against Plasmodium berghei in mice (Mus musculus) expressed as number of cures was determined at a dose of 640 mg/kg; format: functional
Plasmodium falciparum [2] = experiment: In vitro antimalarial activity against Plasmodium falciparum D6 Sierra Leone; format: functional, organism-based
Plasmodium falciparum [3] = experiment: In vitro antimalarial activity against Plasmodium falciparum W-2 (Indochina); format: functional, organism-based
Mus musculus [4] = experiment: Antimalarial activity against Plasmodium berghei in mice (Mus musculus) expressed as number of cures was determined at a dose of 40 mg/kg; format: functional
Mus musculus [5] = experiment: Antimalarial activity against Plasmodium berghei in mice (Mus musculus) expressed as number of cures was determined at a dose of 160 mg/kg; format: functional

C[C@H]1[C@H](OC(=O)CCC(=O)[O-])O[C@@H]2O[C@@]3(C)CC[C@H]4[C@H](C)CC[C@@H]1[C@@]24OO3.[Na+] [SODIUM ARESUNATE]
No. of cures (Mus musculus [1]): 5

CCOC(=O)CO[C@H]1O[C@@H]2OC3(C)CC[C@H]4[C@H](C)CC[C@@H]([C@H]1C)[C@@]24OO3 (single isomer, unassigned)
IC50 (Plasmodium falciparum [2]): 0.6 ng/mL (≈ 1.62 nM) | IC50 (Plasmodium falciparum [3]): 0.26 ng/mL (≈ 0.702 nM)

C[C@H]1[C@@H](OCCC(=O)O)O[C@@H]2OC3(C)CC[C@H]4[C@H](C)CC[C@@H]1[C@@]24OO3 (single isomer, unassigned; 7b)
IC50 (Plasmodium falciparum [2]): 85 ng/mL (≈ 239 nM) | IC50 (Plasmodium falciparum [3]): 23.3 ng/mL (≈ 65.3 nM)

C[C@@H]1[C@H](OCc2ccc(C(=O)O)cc2)O[C@@H]2O[C@@]3(C)CC[C@@H]4[C@@H](C)CC[C@@H]1[C@]24OO3 [ARTELINIC ACID]
No. of cures (Mus musculus [1]): 5 | IC50 (Plasmodium falciparum [2]): 4.07 ng/mL (≈ 9.73 nM) | No. of cures (Mus musculus [4]): 5 | IC50 (Plasmodium falciparum [3]): 1.38 ng/mL (≈ 3.3 nM) | No. of cures (Mus musculus [5]): 5

C[C@H]1[C@@H](OCCC(=O)O)O[C@@H]2OC3(C)CC[C@H]4[C@H](C)CC[C@@H]1[C@@]24OO3 (single isomer, unassigned; 8b)
IC50 (Plasmodium falciparum [2]): 51.7 ng/mL (≈ 145 nM) | IC50 (Plasmodium falciparum [3]): 35.6 ng/mL (≈ 100 nM)

COC(=O)CCCO[C@H]1O[C@@H]2OC3(C)CC[C@H]4[C@H](C)CC[C@@H]([C@H]1C)[C@@]24OO3 (single isomer, unassigned)
IC50 (Plasmodium falciparum [2]): 3.06 ng/mL (≈ 7.96 nM) | IC50 (Plasmodium falciparum [3]): 0.95 ng/mL (≈ 2.47 nM)

C[C@H]1[C@@H](OCCCC(=O)O)O[C@@H]2OC3(C)CC[C@H]4[C@H](C)CC[C@@H]1[C@@]24OO3 (single isomer, unassigned)
IC50 (Plasmodium falciparum [2]): 75.5 ng/mL (≈ 204 nM) | IC50 (Plasmodium falciparum [3]): 10.5 ng/mL (≈ 28.4 nM)

C[C@H]1[C@@H](OCc2ccc(C(=O)O)cc2)O[C@@H]2OC3(C)CC[C@H]4[C@H](C)CC[C@@H]1[C@@]24OO3 (single isomer, unassigned)
IC50 (Plasmodium falciparum [2]): 1.74 ng/mL (≈ 4.16 nM) | IC50 (Plasmodium falciparum [3]): 0.92 ng/mL (≈ 2.2 nM)

C[C@H]1[C@@H](OCC(=O)O)O[C@@H]2OC3(C)CC[C@H]4[C@H](C)CC[C@@H]1[C@@]24OO3 (single isomer, unassigned)
IC50 (Plasmodium falciparum [2]): 53.8 ng/mL (≈ 157 nM) | IC50 (Plasmodium falciparum [3]): 26.2 ng/mL (≈ 76.6 nM)

COC(=O)CCO[C@H]1O[C@@H]2OC3(C)CC[C@H]4[C@H](C)CC[C@@H]([C@H]1C)[C@@]24OO3 (single isomer, unassigned)
IC50 (Plasmodium falciparum [2]): 1.84 ng/mL (≈ 4.97 nM) | IC50 (Plasmodium falciparum [3]): 0.64 ng/mL (≈ 1.73 nM)

C[C@@H]1CC[C@H]2[C@@H](C)C(=O)O[C@@H]3O[C@@]4(C)CC[C@@H]1[C@]32OO4 [ARTEMISININ]
No. of cures (Mus musculus [1]): 5 | IC50 (Plasmodium falciparum [2]): 2.93 ng/mL (≈ 10.4 nM) | No. of cures (Mus musculus [4]; 40 mg/kg): 3 and 2 | IC50 (Plasmodium falciparum [3]): 0.66 ng/mL (≈ 2.34 nM) | No. of cures (Mus musculus [5]): 5

COC(=O)c1ccc(CO[C@H]2O[C@@H]3OC4(C)CC[C@H]5[C@H](C)CC[C@@H]([C@H]2C)[C@@]35OO4)cc1 (single isomer, unassigned)
IC50 (Plasmodium falciparum [2]): 0.77 ng/mL (≈ 1.78 nM) | IC50 (Plasmodium falciparum [3]): 0.37 ng/mL (≈ 0.855 nM)

C[C@H]1[C@@H](OCCCC(=O)O)O[C@@H]2O[C@]3(C)CC[C@H]4[C@H](C)CC[C@@H]1[C@@]24OO3
IC50 (Plasmodium falciparum [2]): 17.9 ng/mL (≈ 48.3 nM) | IC50 (Plasmodium falciparum [3]): 8.04 ng/mL (≈ 21.7 nM)
